Read-outs that look alike come from different tables or passages of the source.
Test: Plasma exposure (dried blood spot) after single oral dose
Type: in vivo
Conditions: male, Sprague Dawley, rat, whole blood (dried blood spot), po
Procedure: Male Sprague Dawley rats at 6 to 7 weeks were dosed orally by p.o. gavage with different doses of BTTQ formulated in 1% hydroxyethlycellulose (Dow Corning, Midland, MI, United States) (w/v), 0.25% polysorbate 80 (Sigma-Aldrich, St. Louis, MO, United States) (v/v), and 0.05% antifoam (v/v; Dow Corning, Midland, MI, United States) in purified water. Following dosing, ear temperature was measured by using a k-type thermocouple probe digital thermometer (Cole Parmer) every hour for 6 h and then at 24 h. Blood samples for plasma exposure measurement were obtained at the same time. Blood was collected via a tail snip directly into a 20-μL EDTA-coated capillary and immediately spotted onto a Whatman DMPK-C DBS card (GE Healthcare Bio-Sciences). Tail snips were performed by removing approximately 1 mm of the tail by using a scalpel. Blood flow was initiated by gentle squeezing of the tail. No analgesia or anesthesia was used during blood collections. A single sample and spot were collected per time point. The DBS cards were allowed to dry for approximately 2 h at room temperature, after which the cards were placed in a zip-top bag, stored, and shipped at ambient temperature.

[1] = 1 mg/kg, oral 1 mg/kg, FU 0.053, read-out: Unbound Concentration, individual animals
[2] = 1 mg/kg, oral 1 mg/kg, dried blood spot, read-out: Concentration, Mean
[3] = 1 mg/kg, oral 1 mg/kg, dried blood spot, read-out: Concentration, individual animals
[4] = 1 mg/kg, oral 1 mg/kg, FU 0.053, read-out: Unbound Concentration, Mean
[5] = 3 mg/kg, oral 3 mg/kg, FU 0.053, read-out: Unbound Concentration, Mean
[6] = 3 mg/kg, oral 3 mg/kg, FU 0.053, read-out: Unbound Concentration, individual animals
[7] = 3 mg/kg, oral 3 mg/kg, dried blood spot, read-out: Concentration, Mean
[8] = 3 mg/kg, oral 3 mg/kg, dried blood spot, read-out: Concentration, individual animals

concentration at 2 h [1]: 88.5 nM
concentration at 2 h [2]: 1650 nM
concentration at 2 h [3]: 1670 nM
concentration at 3 h [4]: 62.1 nM
concentration at 3 h [1]: 64.1 nM
concentration at 3 h [2]: 1170 nM
concentration at 3 h [3]: 1210 nM
concentration at 4 h [4]: 57.3 nM
concentration at 4 h [1]: 47.7 nM
concentration at 4 h [2]: 1080 nM
concentration at 4 h [3]: 900 nM
concentration at 5 h [4]: 49.6 nM
concentration at 5 h [1]: 41.1 nM
concentration at 5 h [2]: 935 nM
concentration at 5 h [3]: 775 nM
concentration at 6 h [4]: 41.3 nM
concentration at 6 h [1]: 41.3 nM
concentration at 6 h [2]: 780 nM
concentration at 6 h [3]: 779 nM
concentration at 24 h [4]: 2.13 nM
concentration at 24 h [2]: 40.2 nM
concentration at 1 h [5]: 197 nM
concentration at 1 h [6]: 142 nM
concentration at 1 h [7]: 3710 nM
concentration at 1 h [8]: 2670 nM
concentration at 2 h [5]: 195 nM
concentration at 2 h [6]: 166 nM
concentration at 2 h [7]: 3690 nM
concentration at 2 h [8]: 3140 nM
concentration at 3 h [5]: 168 nM
concentration at 3 h [6]: 169 nM
concentration at 3 h [7]: 3170 nM
concentration at 3 h [8]: 3180 nM
concentration at 4 h [5]: 148 nM
concentration at 4 h [6]: 155 nM
concentration at 4 h [7]: 2790 nM
concentration at 4 h [8]: 2920 nM
concentration at 5 h [5]: 115 nM
concentration at 5 h [6]: 142 nM
Structure (SMILES): O=c1c2nnc(C3(C4CC4)CC3)n2c2c(n1CC1CC1)CCCC2 [BTTQ, 1-[1,1′-bi(cyclopropyl)-1-yl]-5-(cyclopropylmethyl)-6,7,8,9-tetrahydro[1,2,4]triazolo[4,3-A]quinoxaline-4(5H)-one]

From publication PMC7506137, “Selective Phosphodiesterase 1 Inhibitor BTTQ Reduces Blood Pressure in Spontaneously Hypertensive and Dahl Salt Sensitive Rats: Role of Peripheral Vasodilation” (Frontiers in Physiology, 2020)
